Several values for one entry are separate records, joined by “and”; a condition that tells them apart may be missing. Identical values can stand only once.
Test system: 857933-349-R-J2-PDC complex spheroid viability
Experiment: Anticancer human tumor 857933-349-R-J2-PDC patient-derived colon adenocarcinoma cell line growth inhibition [POLQ]
Details: for viability, T/C: stronger effect = lower value
Experimental: Multicellular complex tumor spheroid response to Polymerase (POL) inhibitors (novobiocin, ART-558, RP6685) in combination with a variety of drugs and investigational agents in selected tumor cell lines
The POL inhibitors (novobiocin, ART-558, and RP6685) were evaluated both individually and in combination with standard of care and investigational anticancer small molecules within a complex spheroid model of solid tumors. . Complex spheroids include a stromal component modeled by human endothelial cells (HUVEC) and fibroblasts modeled by human mesenchymal stem cells (MSCs). The concentration ranges selected for each drug and investigational agent were based upon clinically achievable concentrations if the clinical Cmax of the agent was known.
Compounds. The drugs and investigational agents: novobiocin (NSC847541), ART-558 (NSC835418), RP-6685 (NSC848927), peposertib (NSC802822), ceralasertib (NSC780249), elimusertib (NSC800525), camonsertib (NSC841442), AZD-1390 (NSC803789), olaparib (NSC753686), talazoparib (NSC767125), rucaparib (NSC756644), sotorasib (NSC818433), MRTX-1133 (NSC836407), SN-38 (NSC673596), topotecan (NSC609699), epotoside (NSC141540), doxorubicin (NSC123127), gemcitabine (NSC613327), 5-fluorouracil (NSC19893), paclitaxel (NSC125973), vemurafenib (NSC761431), MSA-2 (NSC828583), SN-011 (NSC837082), adavosertib (NSC754352), prexasertib (NSC758257), carboplatin (NSC241240) and oxaliplatin (NSC266046), were obtained from the National Cancer Institute (NCI) Developmental Therapeutics Program Chemical Repository (21). The FDA-approved anticancer drug set is available from the Developmental Therapeutics Program at https://dtp.cancer.gov/organization/dscb/obtaining/. […] The stock solutions were prepared in dimethyl sulfoxide (DMSO, Sigma-Aldrich, St. Louis, MO, cat. D2650), except for the platinum compounds which were prepared in saline (Quality Biological, Gaithersburg, MD, cat. 114-055-101), at 800-fold the tested concentration and stored at -70 degrees C prior to their use. All drugs and investigational agents were tested over a range starting from a high concentration at or near the clinical Cmax and decreasing in half-log increments. If the clinical Cmax for an agent had not been determined, the highest concentration tested was 10 microM, except for SN-38, which was tested at a high concentration of 1 microM.
Cell Culture. All cells were maintained in an incubator at 37 degrees C and 5% CO2 with 95% humidity. The PDC lines were cultured according to standard operating procedures established by the NCI PDMR (https://pdmr.cancer.gov). Table 3 of the manuscript, lists the cell lines along with the number of the three cell types plated to form the mct-spheroids and media for tumor cell growth. After thawing, all PDC lines, except 997537-175-T-J1-PDC and 415267-285-R-J2-PDC, were cultured in Matrigel-coated flasks prepared with a working solution of 1X Ham's F-12 nutrient mix, without supplementation (Thermo Fisher Scientific, cat. 11765054), 100 U/mL penicillin-streptomycin (Thermo Fisher Scientific, cat. 15140122), and 2.5% Matrigel (Corning Inc., Corning, NY, cat. 354248) for the first three passages. The two PDC lines 997537-175-T-J1-PDC and 415267-285-R-J2-PDC were cultured on uncoated flasks. The 857933-349-R-J2-PDC line was cultured in 6C/Colon 1B media containing advanced DMEM/F-12 (Thermo Fisher Scientific, cat. 12634028), 10 mM HEPES (Thermo Fisher Scientific, cat. 15630080), 1X GlutaMAX supplement (Thermo Fisher Scientific, cat. 35050061), 0.1 mg/mL primocin (InvivoGen, San Diego, CA, cat. ant-pm-2), 10% defined fetal bovine serum, heat inactivated (HyClone Laboratories Inc., Logan, UT, cat. SH30070.03HI), 50% L-WRN conditioned media (ATCC, cat. CRL-3276), 1.25 mM N-Acetyl-L-cysteine (Sigma-Aldrich, cat. A9165), 10 mM nicotinamide (Sigma-Aldrich, cat. N0636), 1X B-27 supplement (Thermo Fisher Scientific, cat. 17504044), 1X N-2 supplement (Thermo Fisher Scientific, cat. […]
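Note: spheroids exposed to compounds for seven days before readout.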

In the case of `COc1cccc(OCCCN)c1-c1cc(Nc2cnc(C#N)cn2)n[nH]1`, the viability, T/C (compound 0.00316 µM) is reported as 91.5% and 95.9% and 86.6%, the viability, T/C (compound 0.01 µM) is reported as 87.6% and 84.2% and 97.2% and the viability, T/C (compound 0.0316 µM) is reported as 74.3% and 98.6% and 80.6%. The viability, T/C (compound 0.1 µM) was 51.2% and 62.8% and 75.9%, the viability, T/C (compound 0.316 µM) was 53.3% and 60.6% and 53.7% and the viability, T/C (compound 1 µM) was 38.1% and 53.8% and 48.8%. For the same molecule, the IC50 (curve of compound) was 189 nM and > 1000 nM and 731 nM.

In the case of `Cn1ncnc1[C@H]1c2n[nH]c(=O)c3cc(F)cc(c23)N[C@@H]1c1ccc(F)cc1` + COC1C(OC(N)=O)C(O)C(Oc2ccc3c(O)c(NC(=O)c4ccc(O)c(CC=C(C)C)c4)c(=O)oc3c2C)OC1(C)C, the IC50 (curve of first compound, second compound 0.0316 µM) is reported as > 100 nM, the IC50 (curve of first compound, second compound 0.1 µM) is reported as > 100 nM and the IC50 (curve of first compound, second compound 0.316 µM) is reported as > 100 nM. For the same molecule, the IC50 (curve of first compound, second compound 1 µM) was > 100 nM, the IC50 (curve of first compound, second compound 3.16 µM) was > 100 nM and the IC50 (curve of first compound, second compound 10 µM) was > 100 nM. For the same molecule, the viability, T/C (second compound 0.0316 µM, first compound 0.000316 µM) was 76.1%, the viability, T/C (second compound 0.0316 µM, first compound 0.001 µM) was 95.3% and the viability, T/C (second compound 0.0316 µM, first compound 0.00316 µM) was 77.6%. For the same molecule, the viability, T/C (second compound 0.0316 µM, first compound 0.01 µM) was 92.6%, the viability, T/C (second compound 0.0316 µM, first compound 0.0316 µM) was 90.5% and the viability, T/C (second compound 0.0316 µM, first compound 0.1 µM) was 100%. For the same molecule, the viability, T/C (second compound 0.1 µM, first compound 0.000316 µM) was 106%, the viability, T/C (second compound 0.1 µM, first compound 0.001 µM) was 88.8% and the viability, T/C (second compound 0.1 µM, first compound 0.00316 µM) was 102%. It also gave a viability, T/C (second compound 0.1 µM, first compound 0.01 µM) of 96.2%, a viability, T/C (second compound 0.1 µM, first compound 0.0316 µM) of 96% and a viability, T/C (second compound 0.1 µM, first compound 0.1 µM) of 84.7%. For the same molecule, the viability, T/C (second compound 0.316 µM, first compound 0.000316 µM) was 89.2%, the viability, T/C (second compound 0.316 µM, first compound 0.001 µM) was 98.7% and the viability, T/C (second compound 0.316 µM, first compound 0.00316 µM) was 98.9%. The viability, T/C (second compound 0.316 µM, first compound 0.01 µM) was 77.8%, the viability, T/C (second compound 0.316 µM, first compound 0.0316 µM) was 93.1% and the viability, T/C (second compound 0.316 µM, first compound 0.1 µM) was 88.4%. The viability, T/C (second compound 1 µM, first compound 0.000316 µM) was 75.9%, the viability, T/C (second compound 1 µM, first compound 0.001 µM) was 93.4% and the viability, T/C (second compound 1 µM, first compound 0.00316 µM) was 76.4%. The viability, T/C (second compound 1 µM, first compound 0.01 µM) was 77.8%, the viability, T/C (second compound 1 µM, first compound 0.0316 µM) was 97.7% and the viability, T/C (second compound 1 µM, first compound 0.1 µM) was 107%. It also gave a viability, T/C (second compound 3.16 µM, first compound 0.000316 µM) of 78.6%, a viability, T/C (second compound 3.16 µM, first compound 0.001 µM) of 100% and a viability, T/C (second compound 3.16 µM, first compound 0.00316 µM) of 95.3%. For the same molecule, the viability, T/C (second compound 3.16 µM, first compound 0.01 µM) was 92.8%, the viability, T/C (second compound 3.16 µM, first compound 0.0316 µM) was 87.8% and the viability, T/C (second compound 3.16 µM, first compound 0.1 µM) was 77.7%. For the same molecule, the viability, T/C (second compound 10 µM, first compound 0.000316 µM) was 60.5%, the viability, T/C (second compound 10 µM, first compound 0.001 µM) was 94.8% and the viability, T/C (second compound 10 µM, first compound 0.00316 µM) was 101%. It also gave a viability, T/C (second compound 10 µM, first compound 0.01 µM) of 76.2%, a viability, T/C (second compound 10 µM, first compound 0.0316 µM) of 94% and a viability, T/C (second compound 10 µM, first compound 0.1 µM) of 103%.
